Reference: patent publication US7915050B2, “Regulatory genes for plant differentiation and growth, and use of the same” (National University Corporation Nagoya University, priority 2005, dated 2011)
pIC50, pKd: −log10 of the molar value.

How the values were obtained:
GID1 = target: T1, GID1 (Oryza sativa subsp. japonica, UniProt Q6L545); test: Competition of various GAs in the binding of the 3H-GA4 derivative to GID1 protein; parameters: species or system rice
T1 construct: GST (tag of vector pGEX-4T) (N); made in house
T1 sequence (Q6L545 whole entry): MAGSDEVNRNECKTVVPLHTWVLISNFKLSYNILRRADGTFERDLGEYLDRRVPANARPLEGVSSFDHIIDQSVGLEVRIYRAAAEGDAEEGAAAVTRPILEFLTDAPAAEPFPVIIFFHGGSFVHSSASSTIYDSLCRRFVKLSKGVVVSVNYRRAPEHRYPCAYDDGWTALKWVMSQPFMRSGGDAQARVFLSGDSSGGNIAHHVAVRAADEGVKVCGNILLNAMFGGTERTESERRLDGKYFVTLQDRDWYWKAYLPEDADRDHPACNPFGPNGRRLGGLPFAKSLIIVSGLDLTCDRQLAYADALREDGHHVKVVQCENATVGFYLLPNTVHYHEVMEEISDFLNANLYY
Experimental: In the gibberellin-binding assay, [1,2,16,17-^3H4]16,17-dihydro-GA4 was used as a labeled GA4. In vitro GA-binding assays were carried out using previous methods with some modifications (Nakajima, M. et al., Biochem. Biophys. Res. Comm. 241, 782-786 (1997)). The purified recombinant GID1 protein (400 pmol) was dissolved in 300 μl of binding buffer [20 mM Tris-HCl (pH 7.6), 5 mM 2-mercaptoethanol, and 0.1 M NaCl], and incubated with 100 μl of ^3H4-16,17-dihydroGA4 (6 pmol) for two hours at 25° C., either in the absence of non-labeled GA4 (total binding) or in the presence of 833-fold excess non-labeled GA4 (total non-specific binding). Then, 0.1 ml of the reaction mixture was loaded onto a NAP-5 column (Amersham Biosciences, Piscataway, N.J.). The eluate of the binding buffer (0.6 ml) was discarded, the subsequent eluate (0.2 ml) was collected, and the radioactivity was measured. The specific binding activity, reflecting the number of displaceable GA binding sites, was calculated by subtracting the amount of nonspecific binding from the amount of total binding. The same as above can also be carried out for other GAs.
Thus, it was postulated that, like GID2, GID1 is involved in the degradation of SLR1, or that GID1 functions upstream of SLR1 in GA signaling. […] Based on this phenotypic characteristic of gid1, it was predicted that GID1 was involved in GA perception. To verify this possibility, the interactions between GID1 and radioisotope-labeled GA was directly examined using non-equilibrium gel filtration (Nakajima, M. et al., Biochem. Biophys. Res. Comm. 241, 782-786 (1997)). […] Next, ligand specificity of GID1 was tested by using competition between the tritiated GA4 derivative and various GAs. The concentration of each GA that is required for a 50% inhibition (IC50) of the binding of the tritiated GA4 derivative to GID1 is shown in Table 1. […] The IC50 value for each of these GAs was well consistent with their physiological activity.

AtGID1b = target: T2, AtGID1b (Arabidopsis thaliana, UniProt Q9LYC1); test: Scatchard analysis of GA binding of AtGID1b; settings: equilibrium conditions
T2 construct: made in house; host or cells: E. coli
T2 sequence (Q9LYC1 1-358): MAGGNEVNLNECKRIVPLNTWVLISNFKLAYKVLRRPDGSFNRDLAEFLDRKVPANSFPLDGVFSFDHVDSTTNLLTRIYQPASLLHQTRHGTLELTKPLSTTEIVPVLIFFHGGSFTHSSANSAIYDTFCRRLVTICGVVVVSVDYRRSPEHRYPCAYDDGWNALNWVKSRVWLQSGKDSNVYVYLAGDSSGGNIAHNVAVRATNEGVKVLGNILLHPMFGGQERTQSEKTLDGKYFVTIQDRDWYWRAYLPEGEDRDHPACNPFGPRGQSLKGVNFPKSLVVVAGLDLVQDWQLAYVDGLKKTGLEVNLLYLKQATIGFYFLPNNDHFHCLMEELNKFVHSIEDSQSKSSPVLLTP
Experimental: Panels A) to C) depict the results of Scatchard plot analyses for the GA binding of AtGID1. Results for AtGID1a (A), AtGID1b (B), and AtGID1c (C) are shown. The Kd values for 16,17-dihydro-GA4 was determined by adding various concentrations of GA to the assay mixture. Standard deviation (SD) was determined from these three independent measurements. The insets show time-course characteristics for the GA binding of AtGID1 and replacement (arrow) using an excess amount of non-labeled GA4 (0.125 mM). Panels D) to F) depict the GA binding activities of AtGID1 under different pH conditions. Results for AtGID1a (D), AtGID1b (E), and AtGID1c (F) are shown. The non-specific binding activity (UB) was determined by adding 0.125 mM GA4 to the assay solution, and this was subtracted from the total binding activity (B) to determine the specific binding activity (B-UB).
Specifically, the coding region of the AtGID1 gene was amplified by PCR using specific primers designed based on the full-length cDNA sequence of the AtGID1 gene and having appropriate restriction sites at each end. […]
The kinetics, ligand selectivity, and pH dependence of GA binding for the three AtGID1s identified as described above were examined using the tritiated GA4 derivative 16,17-dihydro-GA4. […] Furthermore, the kinetics of GA binding of each AtGID1 was analyzed under equilibrium conditions of GA at various concentrations.

CC1C[C@]23C[C@H]1CCC2[C@]12CC[C@H](O)[C@](C)(C(=O)O1)[C@H]2[C@@H]3C(=O)O (stereo partly shown) [H2-GA4, 16,17-dihydro-GA4]
affinity of recombinant GID1 for the GA (in words) (GID1): high affinity
pIC50 (GID1; competition with tritiated GA4 derivative for binding to recombinant GID1, read-out: IC50 (concentration required for 50% inhibition)): 6.00
Rel % (relative value) (GID1; relative competition, GA4 given as 100): (20) %
pKd (AtGID1b): 6.32
